IC50 and EC50 data for 25 compounds are collected here from patent US20240043427A1 (Gilead Sciences, Inc., priority 2020, published 2024).

Bounds are passed on as bounds.

Experiment [1] addresses T1, CD73 (Homo sapiens (Human), UniProt P21589). The class given is biochemical. To be noted: 1 mM NaH2PO4 in enzyme buffer, CD73 0.3 nM, AMP 15 uM.
The target of experiment [2] is T1, CD73. The experiment in a line: MDA-MB-231 Cell Based CD73 Activity Assay (DMEM). As to conditions: MDA-MB-231-GFP cells, DMEM medium with 10% human plasma, 200 uM AMP.

T1 sequence (P21589 27-574): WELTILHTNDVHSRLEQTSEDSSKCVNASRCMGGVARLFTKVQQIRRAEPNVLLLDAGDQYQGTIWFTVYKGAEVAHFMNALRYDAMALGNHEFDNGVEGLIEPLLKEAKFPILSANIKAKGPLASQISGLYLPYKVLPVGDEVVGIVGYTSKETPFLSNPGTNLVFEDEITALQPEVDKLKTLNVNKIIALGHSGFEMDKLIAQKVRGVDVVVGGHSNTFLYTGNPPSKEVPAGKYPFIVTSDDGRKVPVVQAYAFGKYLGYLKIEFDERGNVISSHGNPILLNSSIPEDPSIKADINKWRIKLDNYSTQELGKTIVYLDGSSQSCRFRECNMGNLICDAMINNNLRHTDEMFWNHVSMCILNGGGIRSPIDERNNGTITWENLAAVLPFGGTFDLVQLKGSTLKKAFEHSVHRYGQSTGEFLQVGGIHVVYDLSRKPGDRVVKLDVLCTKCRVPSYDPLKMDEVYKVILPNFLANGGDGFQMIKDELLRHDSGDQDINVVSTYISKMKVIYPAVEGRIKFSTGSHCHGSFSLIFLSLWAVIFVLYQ

In turn, `CC(F)(F)COc1cc(-c2c[nH]c(=O)[nH]c2=O)nn2ccnc12` [Example 677, 5-(8-(2,2-difluoropropoxy)imidazo[1,2-b]pyridazin-6-yl)pyrimidine-2,4(1H,3H)-dione] displayed an IC50 on CD73 [1] of 12.2 nM. The EC50 on CD73 [2] worked out at 22.2 nM.
The like results for `COC(=O)c1ccc(C2CCN(c3cc(-c4c[nH]c(=O)[nH]c4=O)nn4ccnc34)C2)cc1` (centres unmarked) [Example 265, Methyl 4-(1-(6-(2,4-dioxo-1,2,3,4-tetrahydropyrimidin-5-yl)imidazo[1,2-b]pyridazin-8-yl)pyrrolidin-3-yl)benzoate] were, in that order, 3.22 nM and 77.9 nM.
On CD73 [1], `O=c1[nH]cc(-c2cc(N3CC(Oc4ccc(C(F)(F)F)cn4)C4(CC4)C3)c3nccn3n2)c(=O)[nH]1` (centres unmarked) [Example 345, 5-[8-[7-[[5-(trifluoromethyl)-2-pyridyl]oxy]-5-azaspiro[2.4]heptan-5-yl]imidazo[1,2-b]pyridazin-6-yl]-1H-pyrimidine-2,4-dione] gave an IC50 of 10.2 nM. Further, on CD73 [2], the EC50 came out at 98 nM.
The like results for `O=c1[nH]cc(-c2cc([C@H]3C[C@@H]3c3ccc4c(F)nn(CC(F)(F)F)c4c3)c3nccn3n2)c(=O)[nH]1` [Example 393, 5-(8-((1S,2S)-2-(3-fluoro-1-(2,2,2-trifluoroethyl)-1H-indazol-6-yl)cyclopropyl)imidazo[1,2-b]pyridazin-6-yl)pyrimidine-2,4(1H,3H)-dione] were, in that order, 0.74 nM and 0.16 nM.
The like results for `CNC(=O)c1ccc(C2CCN(c3cc(-c4c[nH]c(=O)[nH]c4=O)nn4ccnc34)C2)cc1` (centres unmarked) [Example 270, 4-(1-(6-(2,4-dioxo-1,2,3,4-tetrahydropyrimidin-5-yl)imidazo[1,2-b]pyridazin-8-yl)pyrrolidin-3-yl)-N-methylbenzamide] were, in that order, 1.13 nM and 13.7 nM.
The compound `CCC(F)(F)COc1cc(-c2c[nH]c(=O)[nH]c2=O)nn2ccnc12` [Example 688, 5-(8-(2,2-difluorobutoxy)imidazo[1,2-b]pyridazin-6-yl)pyrimidine-2,4(1H,3H)-dione] gave a 50% inhibitory concentration (IC50) against CD73 [1] of 7.02 nM. Besides, a half-maximal effect on CD73 [2] (EC50) was put at 34.2 nM.
The like results for `O=C1N(CC2(F)CC2)c2cc([C@H]3C[C@@H]3c3cc(-c4c[nH]c(=O)[nH]c4=O)nn4ccnc34)ccc2C12CC2` (racemic) [Example 734, 5-(8-((1S,2S)-2-(1′-((1-fluorocyclopropyl)methyl)-2′-oxospiro[cyclopropane-1,3′-indolin]-6′-yl)cyclopropyl)imidazo[1,2-b]pyridazin-6-yl)pyrimidine-2,4(1H,3H)-dione] were, in that order, 1.69 nM and 0.19 nM.
The like results for `O=c1[nH]cc(-c2cc([C@H]3C[C@@H]3c3ccc4cnn(CC(F)(F)F)c4c3)c3ncc(Cl)n3n2)c(=O)[nH]1` [Example 470, 5-(3-chloro-8-((1S,2S)-2-(1-(2,2,2-trifluoroethyl)-1H-indazol-6-yl)cyclopropyl)imidazo[1,2-b]pyridazin-6-yl)pyrimidine-2,4(1H,3H)-dione] were, in that order, 0.23 nM and 0.13 nM.
The compound `CC(n1ncc2ccc([C@H]3C[C@@H]3c3cc(-c4c[nH]c(=O)[nH]c4=O)nn4ccnc34)cc21)C(F)(F)F` (stereo partly drawn) [Example 617, 5-(8-((1S,2S)-2-(1-(1,1,1-trifluoropropan-2-yl)-1H-indazol-6-yl)cyclopropyl)imidazo[1,2-b]pyridazin-6-yl)pyrimidine-2,4(1H,3H)-dione] returned an IC50 at CD73 [1] of 0.78 nM. Also, on CD73 [2], the midpoint of the response, the EC50, lay at 0.22 nM.
The like results for `O=c1[nH]cc(-c2cc(N3CCC4(CCOCC4)C3)c3nccn3n2)c(=O)[nH]1` [Example 275, 5-(8-(8-oxa-2-azaspiro[4.5]decan-2-yl)imidazo[1,2-b]pyridazin-6-yl)pyrimidine-2,4(1H,3H)-dione] were, in that order, 8.64 nM and 36.2 nM.
`CC1(C)C(=O)N(CC(F)(F)F)c2cc([C@H]3C[C@@H]3c3cc(-c4c[nH]c(=O)[nH]c4=O)nn4ccnc34)cnc21` [Example 699, 5-(8-((1S,2S)-2-(3,3-dimethyl-2-oxo-1-(2,2,2-trifluoroethyl)-2,3-dihydro-1H-pyrrolo[3,2-b]pyridin-6-yl)cyclopropyl)imidazo[1,2-b]pyridazin-6-yl)pyrimidine-2,4(1H,3H)-dione] registered a half-maximal inhibitory concentration (IC50) against CD73 [1] of 3.15 nM. Moreover, the response on CD73 [2] was half-maximal at 0.56 nM (EC50).
As to `O=c1[nH]cc(-c2cc(N3C[C@@H](F)[C@@H](F)C3)c3ncc(F)n3n2)c(=O)[nH]1` [Example 177, 5-(8-((3R,4S)-3,4-difluoropyrrolidin-1-yl)-3-fluoroimidazo[1,2-b]pyridazin-6-yl)pyrimidine-2,4(1H,3H)-dione], on CD73 [1], 7.27 nM corresponded to half-maximal inhibition (IC50). The same compound displayed an EC50 on CD73 [2] of 33.3 nM.
The like results for `O=c1[nH]cc(-c2cc(N3CCC(c4cccc(C(F)(F)F)c4)C3)c3nccn3n2)c(=O)[nH]1` (centres unmarked) [Example 249, 5-(8-(3-(3-(trifluoromethyl)phenyl)pyrrolidin-1-yl)imidazo[1,2-b]pyridazin-6-yl)pyrimidine-2,4(1H,3H)-dione] were, in that order, 46.1 nM and 249 nM.
The like results for `O=c1[nH]cc(-c2cc([C@H]3C[C@@H]3c3ccc(C(F)(F)F)cc3)c3ncnn3n2)c(=O)[nH]1` [Example 427, 5-(8-((1S,2S)-2-(4-(trifluoromethyl)phenyl)cyclopropyl)-[1,2,4]triazolo[1,5-b]pyridazin-6-yl)pyrimidine-2,4(1H,3H)-dione] were, in that order, 0.48 nM and 7.4 nM.
The like results for `O=c1[nH]cc(-c2cc([C@H]3C[C@@H]3c3ccc4cncc(OCC(F)(F)F)c4c3)c3nccn3n2)c(=O)[nH]1` [Example 710, 5-(8-((1S,2S)-2-(4-(2,2,2-trifluoroethoxy)isoquinolin-6-yl)cyclopropyl)imidazo[1,2-b]pyridazin-6-yl)pyrimidine-2,4(1H,3H)-dione] were, in that order, 1.43 nM and 4.06 nM.
Turning to `COc1ncc(-c2cc(N3CC(OCC(F)(F)F)C(F)(F)C3)c3nccn3n2)c(OC)n1` (centres unmarked) [Example 203, 8-[3,3-difluoro-4-(2,2,2-trifluoroethoxy)pyrrolidin-1-yl]-6-(2,4-dimethoxypyrimidin-5-yl)imidazo[1,2-b]pyridazine], the IC50 at CD73 [1] was determined as 3.03 nM. This compound also came in with an EC50 at CD73 [2] of 10.3 nM.
The like results for `O=c1[nH]cc(-c2cc([C@H]3C[C@@H]3c3ccc4cnc(C(F)(F)F)cc4c3)c3nccn3n2)c(=O)[nH]1` (racemic) [Example 138, 5-(8-((1S,2S)-2-(3-(trifluoromethyl)isoquinolin-6-yl)cyclopropyl)imidazo[1,2-b]pyridazin-6-yl)pyrimidine-2,4(1H,3H)-dione and 5-(8-((1R,2R)-2-(3-(trifluoromethyl)isoquinolin-6-yl)cyclopropyl)imidazo[1,2-b]pyridazin-6-yl)pyrimidine-2,4(1H,3H)-dione] were, in that order, 0.95 nM and 0.64 nM.
Compound `O=c1[nH]cc(-c2cc([C@H]3C[C@@H]3c3cc4c(cnn4CC(F)(F)F)cc3F)c3nccn3n2)c(=O)[nH]1` [Example 595, 5-(8-((1S,2S)-2-(5-fluoro-1-(2,2,2-trifluoroethyl)-1H-indazol-6-yl)cyclopropyl)imidazo[1,2-b]pyridazin-6-yl)pyrimidine-2,4(1H,3H)-dione] gave an IC50 against CD73 [1] of 1.27 nM. The EC50 on CD73 [2] came to 0.52 nM.
For `O=c1[nH]cc(-c2cc(N3CC(OCC(F)(F)F)C3)c3nccn3n2)c(=O)[nH]1` [Example 447, 5-(8-(3-(2,2,2-trifluoroethoxy)azetidin-1-yl)imidazo[1,2-b]pyridazin-6-yl)pyrimidine-2,4(1H,3H)-dione], on CD73 [1], the IC50 was more than 250 nM. Further, it took 718 nM to reach a half-maximal effect at CD73 [2] (EC50).
The like results for `O=c1[nH]cc(-c2cc([C@H]3C[C@@H]3c3ccccn3)c3nccn3n2)c(=O)[nH]1` [Example 159, 5-(8-((1S,2S)-2-(pyridin-2-yl)cyclopropyl)imidazo[1,2-b]pyridazin-6-yl)pyrimidine-2,4(1H,3H)-dione] were, in that order, 1.76 nM and 2.62 nM.
Regarding `O=c1[nH]cc(-c2cc([C@H]3C[C@@H]3c3cc(OCC4CC4(F)F)c(Cl)cn3)c3nccn3n2)c(=O)[nH]1` (mixture of isomers) [Example 597, 5-(8-((1S,2S)-2-(5-chloro-4-((2,2-difluorocyclopropyl)methoxy)pyridin-2-yl)cyclopropyl)imidazo[1,2-b]pyridazin-6-yl)pyrimidine-2,4(1H,3H)-dione], on CD73 [1], 2.79 nM corresponded to half-maximal inhibition (IC50). The same compound had a concentration for a half-maximal effect (EC50) at CD73 [2] of 5.93 nM.
The like results for `O=c1[nH]cc(-c2cc(N3C[C@H]4CCC[C@H]4C3)c3nccn3n2)c(=O)[nH]1` [Example 223, 5-(8-((3aR,6aS)-hexahydrocyclopenta[c]pyrrol-2(1H)-yl)imidazo[1,2-b]pyridazin-6-yl)pyrimidine-2,4(1H,3H)-dione] were, in that order, 31.4 nM and 66.4 nM.
On CD73 [1], `O=c1[nH]cc(-c2cc(N3CC4(CCC4(F)F)C3)c3nccn3n2)c(=O)[nH]1` [Example 405, 5-(8-(5,5-difluoro-2-azaspiro[3.3]heptan-2-yl)imidazo[1,2-b]pyridazin-6-yl)pyrimidine-2,4(1H,3H)-dione] gave an IC50 of 8.3 nM. The EC50 at CD73 [2] turned out to be 21.6 nM.
The like results for `O=C(NC1(C(F)(F)F)CC1)O[C@H]1CN(c2cc(-c3c[nH]c(=O)[nH]c3=O)nn3c(F)cnc23)CC1(F)F` [Example 664, (S)-1-(6-(2,4-dioxo-1,2,3,4-tetrahydropyrimidin-5-yl)-3-fluoroimidazo[1,2-b]pyridazin-8-yl)-4,4-difluoropyrrolidin-3-yl (1-(trifluoromethyl)cyclopropyl)carbamate] were, in that order, 0.92 nM and 0.21 nM.
The like results for `O=c1[nH]cc(-c2cc(N3CCC4(CCOC4)C3)c3nccn3n2)c(=O)[nH]1` (centres unmarked) [Example 274, 5-(8-(2-oxa-7-azaspiro[4.4]nonan-7-yl)imidazo[1,2-b]pyridazin-6-yl)pyrimidine-2,4(1H,3H)-dione] were, in that order, 16.5 nM and 39.4 nM.
